ChEMBL document CHEMBL4699536, “Discovery of Natural Compounds for Cardiac Fibrosis by a Transcriptome-Based Functional Gene Module Reference Approach” (J Nat Prod, 2020)
The source made the active and inactive calls.

What was measured:
Type in all cases: functional, organism-based
Conditions in all cases: time 30.0 day
[1] = tested on: Rattus norvegicus; experiment: Cardioprotective activity in Sprague-Dawley rat model of LAD coronary artery ligation-induced cardiac fibrosis assessed as increase in left ventricular function by measuring reduction in LAD-induced anterior wall weakened at 2.86 mg/kg, po administered via gavage for 30 days by echocardiography
[2] = tested on: Rattus norvegicus; experiment: Cardioprotective activity in Sprague-Dawley rat model of LAD coronary artery ligation-induced cardiac fibrosis assessed as decrease in collagen volume fraction at 2.86 mg/kg, po administered via gavage for 30 days by Masson trichrome staining based microscopic method
[3] = tested on: Rattus norvegicus; experiment: Cardioprotective activity in Sprague-Dawley rat model of LAD coronary artery ligation-induced cardiac fibrosis assessed as decrease in collagen in heart at 2.86 mg/kg, po administered via gavage for 30 days by Masson trichrome staining based microscopic method
[4] = tested on: Rattus norvegicus; experiment: Cardioprotective activity in Sprague-Dawley rat model of LAD coronary artery ligation-induced cardiac fibrosis assessed as decrease in myocardial necrotic area at 2.86 mg/kg, po administered via gavage for 30 days
[5] = tested on: Rattus norvegicus; experiment: Cardioprotective activity in Sprague-Dawley rat model of LAD coronary artery ligation-induced cardiac fibrosis assessed as increase in organized myocardial cells at 2.86 mg/kg, po administered via gavage for 30 days by H and E staining based optical microscopic method
[6] = tested on: Rattus norvegicus; experiment: Cardioprotective activity in Sprague-Dawley rat model of LAD coronary artery ligation-induced cardiac fibrosis assessed as increase in fractional shortening at 2.86 mg/kg, po administered via gavage for 30 days by echocardiography
[7] = tested on: Rattus norvegicus; experiment: Cardioprotective activity in Sprague-Dawley rat model of LAD coronary artery ligation-induced cardiac fibrosis assessed as decrease in heart weight ratio at 2.86 mg/kg, po administered via gavage for 30 days
[8] = tested on: Rattus norvegicus; experiment: Cardioprotective activity in Sprague-Dawley rat model of LAD coronary artery ligation-induced cardiac fibrosis assessed as increase in ejection fraction at 2.86 mg/kg, po administered via gavage for 30 days by echocardiography
[9] = tested on: Rattus norvegicus; experiment: Cardioprotective activity in Sprague-Dawley rat model of LAD coronary artery ligation-induced cardiac fibrosis assessed as reduction in infarct survival area of myocardial cells at 2.86 mg/kg, po administered via gavage for 30 days by H and E staining based optical microscopic method
[10] = tested on: Rattus norvegicus; experiment: Cardioprotective activity in Sprague-Dawley rat model of LAD coronary artery ligation-induced cardiac fibrosis assessed as decrease in heart weight ratio at 10 mg/kg, po administered via gavage for 30 days
[11] = tested on: Rattus norvegicus; experiment: Cardioprotective activity in Sprague-Dawley rat model of LAD coronary artery ligation-induced cardiac fibrosis assessed as decrease in collagen volume fraction at 10 mg/kg, po administered via gavage for 30 days by Masson trichrome staining based microscopic method
[12] = tested on: Rattus norvegicus; experiment: Cardioprotective activity in Sprague-Dawley rat model of LAD coronary artery ligation-induced cardiac fibrosis assessed as decrease in myocardial necrotic area at 10 mg/kg, po administered via gavage for 30 days
[13] = tested on: Rattus norvegicus; experiment: Cardioprotective activity in Sprague-Dawley rat model of LAD coronary artery ligation-induced cardiac fibrosis assessed as increase in fractional shortening at 10 mg/kg, po administered via gavage for 30 days by echocardiography
[14] = tested on: Rattus norvegicus; experiment: Cardioprotective activity in Sprague-Dawley rat model of LAD coronary artery ligation-induced cardiac fibrosis assessed as decrease in CTGF mRNA expression at 10 mg/kg, po administered via gavage for 30 days by RT2 Profiler PCR Array
[15] = tested on: Rattus norvegicus; experiment: Cardioprotective activity in Sprague-Dawley rat model of LAD coronary artery ligation-induced cardiac fibrosis assessed as increase in left ventricular function by measuring reduction in LAD-induced anterior wall weakened at 10 mg/kg, po administered via gavage for 30 days by echocardiography
[16] = tested on: Rattus norvegicus; experiment: Cardioprotective activity in Sprague-Dawley rat model of LAD coronary artery ligation-induced cardiac fibrosis assessed as decrease in Lox mRNA expression at 10 mg/kg, po administered via gavage for 30 days by RT2 Profiler PCR Array
[17] = tested on: Rattus norvegicus; experiment: Cardioprotective activity in Sprague-Dawley rat model of LAD coronary artery ligation-induced cardiac fibrosis assessed as decrease in collagen in heart at 10 mg/kg, po administered via gavage for 30 days by Masson trichrome staining based microscopic method
[18] = tested on: Rattus norvegicus; experiment: Cardioprotective activity in Sprague-Dawley rat model of LAD coronary artery ligation-induced cardiac fibrosis assessed as increase in organized myocardial cells at 10 mg/kg, po administered via gavage for 30 days by H and E staining based optical microscopic method
[19] = tested on: Rattus norvegicus; experiment: Cardioprotective activity in Sprague-Dawley rat model of LAD coronary artery ligation-induced cardiac fibrosis assessed as decrease in Col3a1 mRNA expression at 10 mg/kg, po administered via gavage for 30 days by RT2 Profiler PCR Array
[20] = tested on: Rattus norvegicus; experiment: Cardioprotective activity in Sprague-Dawley rat model of LAD coronary artery ligation-induced cardiac fibrosis assessed as reduction in infarct survival area of myocardial cells at 10 mg/kg, po administered via gavage for 30 days by H and E staining based optical microscopic method
[21] = tested on: Rattus norvegicus; experiment: Cardioprotective activity in Sprague-Dawley rat model of LAD coronary artery ligation-induced cardiac fibrosis assessed as increase in ejection fraction at 10 mg/kg, po administered via gavage for 30 days by echocardiography

Measured: Activity

CCOC(=O)[C@H](CCc1ccccc1)N[C@@H](C)C(=O)N1CCC[C@H]1C(=O)O
active: [1] | [2] | [3] | [4] | [5] | [6] | [7] | [8] | [9]

COc1cc2c(c(OC)c1OC)-c1c(cc3c(c1OC)OCO3)C[C@H](C)[C@](C)(O)[C@H]2OC(=O)c1ccccc1
not listed: [1] | [2] | [3] | [4] | [5] | [6] | [7] | [8] | [9]
active: all other assays above
